Test results as given in patent publication US20130338115A1, “USE OF MITOCHONDRIALLY-ADDRESSED COMPOUNDS FOR PREVENTING AND TREATING CARDIOVASCULAR DISEASES” (Mitotech SA, priority 2007, published 2013).

How the values were obtained:
[1] = test system: Wistar male rats; assay: Regional myocardial ischemia and reperfusion in anesthetized rats; type: in vivo, rat
Experimental: To study a possibility of reduction of the irreversible damage of cardiomyocytes by SkQ1 in vivo a model of regional myocardial ischemia and reperfusion in anesthetized rats was used. Experiments were performed on Wistar male rats weighing 300-450 grams, fed a standard diet. In the control animals during three weeks received NaBr dissolved in 0.1 M phosphate buffer (pH 6.0), at a dose of 250 nmol/kg body weight/day. Animals of the experimental group during three weeks together with food received SkQ1 dissolved in 0.1 M phosphate buffer (pH 6.0), at a dose of 250 nmol/kg body weight/day.
In urethane-anesthetized animals ([…] body weight intraperitoneally administered), artificial ventilation of the lungs with room air with added oxygen at a rate of 60-80 beats per minute was carried out. Indicators of the acid-base balance of arterial blood (pH, pO2 and pCO2) during the entire experiment were controlled with the use of acid-base gas analyzer ABL-30 (Radiometer) and maintained at a physiological level.
Catheterization of the carotid artery was performed for recording arterial pressure (Mingograf 804, Siemens-Elema). The chest was opened by longitudinal dissection of the sternum and the heart was freed from the pericardium. To induce regional myocardial ischemia, the left ventricle was pierced with an atraumatic needle 5-0 under the left appendage in the direction perpendicular to long axis of the heart. Tightening the ligature at the anterior descending coronary artery (ADA) located deep in the pierced myocardium ceased blood supply to a portion of the myocardium, weakening of the ligature restored coronary flow.
The dissection is followed by a 30-min period of stabilization of hemodynamic parameters (the initial state). Then anterior descending coronary artery was occluded for 40 min followed by 60 min of reperfusion. At the end of the experiment, to identify the risk zone (RZ) and the intact zone, anterior descending coronary artery was occluded and a 2% Evans solution (2 ml) was injected as a bolus into the jugular vein. Then the heart was cut out and the left ventricle (LV) was separated and frozen at −20° C.
To measure infarct size, the method for histochemical localization of the risk zone (RZ) and myocardial infarction (MI) by tissue staining with 2,3,5-triphenyltetrazolium chloride (TFT) was used (Kitakaze M., Takashima S., Funaya H., Minamino T., Node K., Shinozaki Y., Mori H., Hori M., 1997. Temporary acidosis during reperfusion limits myocardial infarct size. Am. J. Physiol.; 272: H2071-H207). […] The obtained samples were scanned, MI and RZ sizes were determined by the method of computer-assisted planimetry using the Imagecal program. […]

[2] = test system: isolated hearts of Wistar rats; assay: H2O2-induced development of arrhythmias in isolated rat hearts after 3 weeks oral SkQ1; type: in vivo; settings: for normal rhythm maintained, % of the experiments: hydrogen peroxide 100 μm into coronary bed
Experimental: Wistar rats received preparation SkQ1 daily for 3 weeks at doses of 2.0, 0.2 and 0.02 nmol/kg body weight by its addition to the curd. In the control group of animals, the feed was supplemented with sodium bromate in a similar dose. Experiments on isolated hearts were performed 1-2 days after the end of administration of the preparations by a standard technique under conditions of retrograde perfusion of the heart with a controlled rate of perfusion and a measurement of spontaneous heart rate. The effect of SkQ1 on the incidence of arrhythmias induced by injection of hydrogen peroxide (100 μm) into the coronary bed of hearts was studied. This model reproduces some features of a situation of oxidative stress that develops during reperfusion of ischemic heart.

[3] = test system: rat heart; settings: pre-perfusion of rat heart; Kutala et al. 2006; cited from earlier work
[4] = SkQ1 250 nmol/kg body weight/day with food for three weeks, initial state

Compound | RZ/LV (risk zone/weight of the left ventricle), difference between the groups ([1]; 250 nmol/kg body weight/day, three weeks, 40 min occlusion, 60 min reperfusion) | MI/RZ ratio (myocardial infarction/risk zone), times less as compared to the control ([1]; 250 nmol/kg body weight/day, three weeks, 40 min occlusion, 60 min reperfusion, P<0.005) | effect on blood pressure [1, 4] | effect on heart rate [1, 4] | normal rhythm maintained, % of the experiments ([2]; SkQ1 0.02 nmol/kg daily for 3 weeks) | normal rhythm maintained, % of the experiments ([2]; SkQ1 0.2 nmol/kg daily for 3 weeks) | number of hearts with documented normal rhythm ([2]; SkQ1 0.2 nmol/kg, 23 experiments) | normal rhythm maintained, % of the experiments ([2]; SkQ1 2.0 nmol/kg daily for 3 weeks) | reduction of infarct size caused by subsequent ischemia/reperfusion [3]
CC1=C(C)C(=O)C(CCCCCCCCCC[P+](c2ccccc2)(c2ccccc2)c2ccccc2)=CC1=O [SkQ1] | no differences | 1.7 times | No effect | No effect | 55% | 70% | 16 hearts | 58% | –
CC1(C)CC(O)CC(C)(C)N1[O] [Tempol] | – | – | – | – | – | – | – | – | 1.5 times
